From patent publication US20110184188A1, “Insecticidal Benzenedicarboxamide Derivative” (priority 2008, published 2011)

test: logP(acid) by reverse phase (C18) chromatography at pH 2.3; type: physicochemical; conditions: pH 2.3

SMILES	chromatographic logP
Cc1nc(Cn2nnc(C(F)(F)F)n2)ccc1[N+](=O)[O-] [SYNTHESIS EXAMPLE 85-1]	2.85

same assay, conditions: pH 2.3; reverse phase (C18) chromatography, pH2.3, 0.1% phosphoric acid / acetonitrile gradient 10-95%; read-out: logP (acid)

SMILES	chromatographic logP
Cc1nc(Cn2cnc(C(F)(F)C(F)(F)C(F)(F)F)n2)ccc1N [SYNTHESIS EXAMPLE 84-2]	1.52

same assay, conditions: reverse phase (C18) chromatography at pH 2.3

SMILES	logP (acid)	Physical property logP (acid)
COc1ccc(Br)c(C(=O)Nc2ccc(Cn3nc(C(F)(F)C(F)(F)F)cc3C(F)(F)F)nc2C)c1C(=O)N[C@@H](C)C[S+](C)[O-] (stereo partly shown) [11-20]	logP (acid) 2.90	–
COc1ccc(Br)c(C(=O)Nc2ccc(Cn3nc(C(F)(F)C(F)(F)F)cc3C(F)(F)F)nc2C)c1C(=O)N[C@@H](C)CSC [11-19]	logP (acid) 4.02	–
Cc1cc(Cn2nc(C(F)(F)C(F)(F)F)nc2C(F)(F)F)ccc1NC(=O)c1cc(Cl)cc(Cl)c1C(=O)N[C@@H](C)C[S+](C)[O-] (stereo partly shown) [10-11]	logP (acid) 3.28	–
CSC[C@H](C)NC(=O)c1c(Br)cccc1C(=O)Nc1ccc(Cn2nc(C(F)(F)C(F)(F)F)cc2C(F)(F)F)nc1C [13-135]	logP (acid) 4.30	–
Cc1nc(Cn2nc(C(F)(F)C(F)(F)C(F)(F)F)cc2C(F)(F)F)ccc1NC(=O)c1cccc(Br)c1C(=O)N[C@@H](C)CS(C)(=O)=O [13-139]	logP (acid) 3.56	–
CSC[C@H](C)NC(=O)c1c(Cl)cccc1C(=O)Nc1ccc(Cn2c(C(F)(F)F)nc(Cl)c2Cl)nc1C [13-502]	3.50	–
CSCC(C)NC(=O)c1c(Cl)cccc1C(=O)Nc1ccc(Cn2nc(C(F)(F)F)nc2SC(C)C)cc1C (stereo not shown) [14-39]	–	logP (acid) 4.13
CCSc1nc(C(F)(F)F)nn1Cc1ccc(NC(=O)c2cccc(Cl)c2C(=O)NC(C)CSC)c(C)c1 (stereo not shown) [14-38]	–	logP (acid) 4.13
Cc1nc(Cn2nc(C(F)(F)C(F)(F)C(F)(F)F)cc2C(F)(F)F)ccc1NC(=O)c1cccc(Br)c1C(=O)N[C@@H](C)C[S+](C)[O-] (stereo partly shown) [13-136]	logP (acid) 3.08	–
CSC[C@H](C)NC(=O)c1c(Cl)cccc1C(=O)Nc1ccc(Cn2cc(C(F)(F)C(F)(F)F)c(C(F)(F)C(F)(F)F)n2)nc1C [13-50]	4.27	–
CSC[C@H](C)NC(=O)c1c(Cl)ccc(Cl)c1C(=O)Nc1ccc(Cn2nc(C(F)(F)F)cc2C(F)(F)F)cc1C [11-21]	logP (acid) 3.88	–
CSC[C@H](C)NC(=O)c1c(Cl)cccc1C(=O)Nc1ccc(Cn2nc(C(F)F)c(Cl)c2C(F)F)nc1C [13-27]	3.21	–
CSC[C@H](C)NC(=O)c1c(I)cccc1C(=O)Nc1ccc(Cn2cc(C(F)(F)C(F)(F)F)c(C(F)(F)C(F)(F)F)n2)nc1C [13-156]	logP (acid) 4.46	–
Cc1cc(Cn2nc(C(F)(F)C(F)(F)F)nc2C(F)(F)F)ccc1NC(=O)c1c(Cl)ccc(Cl)c1C(=O)N[C@@H](C)CS(C)(=O)=O [11-29]	logP (acid) 3.50	–
COc1ccc(Br)c(C(=O)Nc2ccc(Cn3nc(C(F)(F)C(F)(F)F)nc3C(F)(F)F)cc2C)c1C(=O)N[C@@H](C)CSC [11-38]	logP (acid) 4.14	–
Cc1nc(Cn2nc(C(F)(F)F)cc2C(F)(F)F)ccc1NC(=O)c1c(Br)ccc(Cl)c1C(=O)N[C@@H](C)C[S+](C)[O-] (stereo partly shown) [11-14]	logP (acid) 2.68	–
Cc1nc(Cn2nc(C(F)F)c(Cl)c2C(F)F)ccc1NC(=O)c1cccc(Cl)c1C(=O)NC(C)C[S+](C)[O-] (mixture of isomers) [13-58]	2.13	–
Cc1nc(Cn2nc(C(F)(F)C(F)(F)F)cc2C(F)(F)F)ccc1NC(=O)c1cccc(Br)c1C(=O)NC(C)C[S+](C)[O-] (mixture of isomers) [13-188]	logP (acid) 2.81	–

same assay, conditions: reverse phase (C18) chromatography at pH2.3, 0.1% phosphoric acid aqueous solution / acetonitrile, linear gradient 10-95%

SMILES	logP (acid)
CSC[C@H](C)NC(=O)c1c(Cl)cccc1C(=O)Nc1cccc(Cn2nc(C(F)(F)C(F)(F)F)nc2-c2ccc(Cl)nc2)c1C [4-11]	logP (acid) 3.8

same assay, conditions: reverse phase (C18) chromatography at pH2.3, 0.1% phosphoric acid aqueous solution / acetonitrile, linear gradient 10-95% acetonitrile

SMILES	logP (acid)
CSC[C@H](C)NC(=O)c1c(Br)cccc1C(=O)Nc1cc(F)c(Cn2nc(C(F)(F)F)nc2C(F)(F)F)cc1C [7-13]	logP (acid) 4.07
Cc1cc(Cn2nc(C(F)(F)F)nc2C(F)(F)F)c(F)cc1NC(=O)c1cccc(Br)c1C(=O)N[C@@H](C)C[S+](C)[O-] (stereo partly shown) [7-14]	logP (acid) 2.68

same assay, conditions: reverse phase (C18) chromatography column, pH 2.3; reverse phase (C18) chromatography, pH2.3, 0.1% phosphoric acid / acetonitrile gradient 10-95%; read-out: logP (acid)

SMILES	chromatographic logP
Cc1nc(Cn2cnc(C(F)(F)C(F)F)n2)ccc1N [SYNTHESIS EXAMPLE 83-2]	0.55
Cc1nc(Cn2nnc(C(F)(F)F)n2)ccc1N [SYNTHESIS EXAMPLE 85-2]	1.18

same assay, conditions: reverse phase (C18) chromatography, pH 2.3

SMILES	logP (acid)
CSC[C@H](C)NC(=O)c1c(Br)cccc1C(=O)Nc1cnc(Cn2nc(C(F)(F)F)nc2C(F)(F)F)cc1C [14-271]	logP (acid) 3.37
CC(=O)CC(C)NC(=O)c1c(Cl)cccc1C(=O)Nc1ccc(Cn2nc(C(F)(F)C(F)(F)F)nc2C(F)(F)F)cc1C (stereo not shown) [14-295]	logP (acid) 3.56
CSC[C@H](C)NC(=O)c1c(Cl)cccc1C(=O)Nc1ccc(Cn2nnc(-c3ccc(C(F)(F)F)cc3)n2)cc1C [14-305]	logP (acid) 4.08
CSC[C@H](C)NC(=O)c1c(SC)cccc1C(=O)Nc1ccc(Cn2nc(C(F)(F)C(F)(F)F)cc2C(=O)C(F)(F)F)cc1C [13-325]	logP (acid) 3.50
CSC[C@H](C)NC(=O)c1c(Cl)cccc1C(=O)Nc1ccc(C(=O)c2cc(C(F)(F)C(F)(F)F)n[nH]2)cc1C [13-229]	logP (acid) 3.4
Cc1cc(Cn2nc(C(F)(F)C(F)(F)F)n(N)c2=O)ccc1NC(=O)c1cccc(Cl)c1C(=O)N[C@@H](C)CS(C)(=O)=O [14-423]	logP (acid) 2.13
CSCC(C)NC(=O)c1c(SC)cccc1C(=O)Nc1ccc(C(O)c2cc(C(F)(F)C(F)(F)F)n[nH]2)cc1C (mixture of isomers) [13-340]	logP (acid) 2.77
CSC[C@H](C)NC(=O)c1c(Cl)cccc1C(=O)Nc1ccc(N(C)c2c(C(F)(F)F)c(C(F)(F)C(F)(F)F)nn2C)nc1C [13-353]	logP (acid) 4.19
Cc1nc(Cn2c(C(F)(F)F)nc(Cl)c2Cl)ccc1NC(=O)c1cccc(Cl)c1C(=O)N[C@@H](C)C[S+](C)[O-] (stereo partly shown) [13-363]	logP (acid) 2.17
CSC[C@H](C)NC(=O)c1c(C(=O)Nc2ccc(Cn3nc(C(F)(F)F)cc3C(F)(F)F)nc2C)cccc1S(C)(=O)=O [13-286]	logP (acid) 3.21
CSC[C@H](C)NC(=O)c1c(Cl)cccc1C(=O)Nc1ccc(Cn2nc(C(F)(F)F)n(C3CC3)c2=O)nc1C [14-323]	logP (acid) 2.57
Cc1cc(Cn2nc(C(F)(F)C(F)(F)F)n(C(F)F)c2=O)ccc1NC(=O)c1cccc(Cl)c1C(=O)N[C@@H](C)CS(C)(=O)=O [14-330]	logP (acid) 2.85
CSC[C@H](C)NC(=O)c1c(Cl)cccc1C(=O)Nc1cnc(Cn2nc(C(F)(F)F)nc2C(F)(F)F)cc1C [14-268]	logP (acid) 3.26
CSC[C@H](C)NC(=O)c1c(Cl)cccc1C(=O)Nc1ccc(Nc2c(C(F)(F)F)c(C(F)(F)C(F)(F)F)nn2C)nc1C [13-226]	logP (acid) 3.64
CSC[C@H](C)NC(=O)c1c(Cl)cccc1C(=O)Nc1ccc(Cn2nc(C(F)(F)C(F)(F)F)cc2C(=O)C(F)(F)F)cc1C [13-220]	logP (acid) 3.52
Cc1nc(Cn2nc(C(F)(F)F)cc2C(F)(F)F)ccc1NC(=O)c1cccc(S(=O)(=O)N(C)C)c1C(=O)NC(C)C[S+](C)[O-] (mixture of isomers) [13-288]	logP (acid) 2.37
CSC[C@H](C)NC(=O)c1c(I)cccc1C(=O)Nc1ccc(Cn2nc(C(F)(F)F)cc2C(F)(F)C(F)(F)F)nc1C [13-239]	logP (acid) 4.27
Cc1cc(Cn2nc(C(F)(F)C(F)(F)F)n(C(F)F)c2=O)ccc1NC(=O)c1cccc(Cl)c1C(=O)N[C@@H](C)C[S+](C)[O-] (stereo partly shown) [14-329]	logP (acid) 2.5
Cc1cc(Cn2nc(C(F)(F)C(F)(F)F)nc2C(F)(F)F)ccc1NC(=O)c1cccc(Cl)c1C(=O)NC(C)CC1(C)OCCCO1 (stereo not shown) [14-357]	logP (acid) 3.79
Cc1cc(Cn2nc(C(F)(F)C(F)(F)F)nc2C(F)(F)F)ccc1NC(=O)c1cccc(S(=O)(=O)N(C)C)c1C(=O)N[C@@H](C)CS(C)(=O)=O [14-395]	logP (acid) 3.13
CSCC(C)NC(=O)c1c(C(=O)Nc2ccc(C(O)c3cc(C(F)(F)C(F)(F)F)n[nH]3)cc2C)cccc1S(C)(=O)=O (mixture of isomers) [13-341]	logP (acid) 2.02
Cc1nc(Cn2nc(C(F)(F)F)cc2C(F)(F)F)ccc1NC(=O)c1cccc(S(=O)(=O)N(C)C)c1C(=O)N[C@@H](C)CS(C)(=O)=O [13-289]	logP (acid) 2.75
CSC[C@H](C)NC(=O)c1c(C(=O)Nc2ccc(Cn3nc(C(F)(F)C(F)(F)F)nc3C(F)(F)F)cc2C)cccc1S(=O)(=O)N(C)C [14-384]	logP (acid) 3.88
CSCC(C)NC(=O)c1c(Cl)cccc1C(=O)Nc1ccc(C(O)c2cc(C(F)(F)C(F)(F)F)n[nH]2)cc1C (mixture of isomers) [13-231]	logP (acid) 2.76
Cc1nc(Cn2nc(C(F)(F)F)cc2C(F)(F)F)ccc1NC(=O)c1c(Cl)cccc1C(=O)NC1CCS(=O)(=O)C1 (stereo not shown) [13-276]	logP (acid) 3.28
CO/N=C(\C)CC(C)NC(=O)c1c(Br)cccc1C(=O)Nc1ccc(Cn2nc(C(F)(F)C(F)(F)F)nc2C(F)(F)F)cc1C (stereo not shown) [14-363]	logP (acid) 4.03

same assay, conditions: reverse phase (C18) chromatography, pH2.3, 0.1% phosphoric acid / acetonitrile gradient 10-95%

SMILES	logP (acid)
CSC[C@H](C)NC(=O)c1c(Cl)cccc1C(=O)Nc1cc(F)c(C)nc1Cn1nc(C(F)(F)F)cc1C(F)(F)F [3-7]	logP (acid) 4.28

same assay, conditions: reverse phase (C18) chromatography, pH2.3, 0.1% phosphoric acid aqueous solution / acetonitrile, linear gradient 10-95% acetonitrile

SMILES	logP (acid)
CSC[C@H](C)NC(=O)c1c(C(=O)Nc2ccc(Cn3nc(C(F)(F)C(F)(F)F)nc3C(F)(F)F)cc2C)ccc(C(F)(F)F)c1Cl [9-23]	logP (acid) 4.63
Cc1nc(Cn2nc(C(F)(F)F)cc2C(F)(F)F)ccc1NC(=O)c1ccc(F)c(Br)c1C(=O)N[C@@H](C)CS(C)(=O)=O [9-21]	logP (acid) 3.27
Cc1cc(Cn2nc(C(F)(F)C(F)(F)F)nc2C(F)(F)F)ccc1NC(=O)c1ccc(F)c(Br)c1C(=O)N[C@@H](C)C[S+](C)[O-] (stereo partly shown) [9-13]	logP (acid) 2.96
